Tests used:
[1] = tested on: IFN-α; test: IFN-α ELISA on DRGs incubated ex vivo or cultured with ADU-S100; assay type: cell-based, mouse
Procedure: ELISA: Mouse high-sensitivity IFN-α ELISA kit (42115-1) and IFN-β ELISA kit (42410-1) were purchased from PBL Assay Science and performed on serum, DRG lysate, or cell culture medium according to the manufacturer's instructions. Serum was obtained from whole blood through cardiac puncture at the time of euthanasia, followed by incubation for 30 minutes at 35° C. to promote clotting. Subsequently, samples were centrifuged at 4° C. at 2,500 xg for 15 minutes, followed by careful isolation of serum (supernatant). For ELISA on cell culture medium, samples were first concentrated approximately 10-fold using Amicon centrifugal filters (Millipore Sigma, UFC8030). DRGs were lysed by mechanical homogenization in a pH 7.4 CHAPS lysis buffer (FivePhoton Biochemicals, CIB-1-7.4-60) supplemented with a protease inhibitor cocktail (Millipore Sigma, 11697498001) and phosphatase inhibitor cocktail (FivePhoton Biochemicals, PIC1). For DRG lysate, Pierce BCA (ThermoFisher, 23225) assays were performed according to the manufacturer's instructions to quantify protein concentration, and ELISA results are reported normalized to protein concentration (pg/mg DRG tissue). To measure IFN-β levels in cerebrospinal fluid (CSF) isolated by spinal catheter from NHPs, we utilized a cynomolgus IFN-β ELISA kit (PBL Assay Science, 46415-1), which was performed using 50 μl CSF according to the manufacturer's instructions. Standard curves were performed in all experiments and values interpolated using GraphPad Prism version.

[2] = tested on: IFN-β; test: YFP (IFN-β) expression in DRG neurons of Ifnb1YFP/YFP reporter mice; assay type: in vivo, mouse
Procedure: Genetic mouse models: All mouse procedures were approved by the Duke University Institutional Animal Care and Use Committee (IACUC) and complied with relevant ethical guidelines. Mice were housed in an animal facility approved by the Association for Assessment and Accreditation of Laboratory Animal Care (AAALAC) under a 12 h light/dark cycle with food and water available ad libitum. All commercially-available genetic mouse models were obtained from Jackson Labs and maintained on a C57BL/6J background, including: Ifnb1YFP reporter mice (strain #010818) 1, STING “goldenticket” knockout mice 2 (STINGgt/gt; strain #017537), STING floxed/conditional knockout mice 3 (STINGfx/fx; strain #031670), Ifnar1 global knockout mice (Ifnar1−/−; strain #028288), Ifnar1 floxed/conditional knockout mice 4 (Ifnar1fx/fx; strain #028256), cGAS knockout mice 5 (cGAS−/−; strain #026554), and RIG-I knockout mice (RIG-I−/−; strain #46070-JAX). Nav1.8-Cre mice 6, also maintained on a C57BL/6J background, were a gift from Rohini Kuner (University of Heidelberg). NOD.CB17-Prkdcscid mice were also obtained from Jackson Labs (strain #001303) and maintained in a NOD/ShiLtSz genetic background. Unless otherwise noted, all experiments were conducted in adult (8-12-week-old) mice. Animals were randomly assigned to each experimental group. Both males and females were included in each group in a sex-matched manner. […]

[3] = tested on: CTX-I; test: Serum CTX-I ELISA; assay type: in vivo, mouse; conditions: d17
Procedure: (§1) ELISA. Mouse high-sensitivity IFN-α ELISA kit (42115-1) and IFN-β ELISA kit (42410-1) were purchased from PBL Assay Science. Mouse CTX-I ELISA kit (AC-06F1) and mouse PINP ELISA kit (AC-33F1) were purchased from Immunodiagnostic Systems. ELISA was performed using culture medium, serum, and bone marrow lysates. Serum was obtained from whole blood that was collected from a submandibular vein via facial vein puncture, coagulated for 30 minutes at room temperature, followed by centrifugation (2,000 ×g for 10 min, 4° C.) and collection of the supernatant (serum). Bone marrow was homogenized in a lysis buffer containing protease inhibitors at 4° C. for 30 minutes. ELISA was conducted in accordance with the manufacturer's instructions. A standard curve was performed for each experiment.

[4] = tested on: PINP; test: Serum PINP ELISA; assay type: in vivo, mouse; conditions: d17
Procedure: as §1

Row | SMILES | IFN-α in culture medium ([1]; cultured DRGs from STING-WT mice) | increase in IFN-α in STING-KO and STING-cKO DRGs ([1]; ex vivo incubation) | IFN-α levels in DRG lysate ([1]; ex vivo incubation 30 μM, 2 h, WT mice) | YFP (IFN-β) expression in DRG neurons [2] | serum CTX-I levels [3] | serum PINP levels [4]
1 | Nc1ncnc2c1ncn2[C@@H]1O[C@@H]2COP(=O)([S-])O[C@@H]3[C@H](O)[C@@H](COP([O-])(=S)O[C@H]2[C@H]1O)O[C@H]3n1cnc2c(N)ncnc21.[Na+].[Na+] (stereo partly drawn) [ADU-S100, (2′-5′)-[P(R)]-5′-O-[(R)-hydroxymercaptophosphinyl]-P-thioadenylyl-adenosine cyclic dinucleotide] | increased IFN-α and IFN-β in the culture medium | abolished in STING-KO mice and largely abolished in STING-cKO mice | IFN-α levels in DRG lysate were increased | increased after ADU-S100 treatment | – | –
2 | Cc1ccc2c(=O)c3cccc(CC(=O)O)c3oc2c1C [DMXAA, 2-(5,6-dimethyl-9-oxo-9H-xanthen-4-yl)acetic acid] | – | – | – | – | could effectively reduce CTX-I levels on d17 | had no effect on serum PINP levels

Source: US20230158057A1, “COMPOSITIONS AND METHODS FOR THE TREATMENT OF PAIN” (Duke University, priority 2020, published 2023)
